These are literature values, as cited in patent US5597804A, “N-sulfonylarginine keto-amide compounds” (Corvas International, Inc., priority 1993, dated 1997).

Molecules are shown by their SMILES.

Holding throughout (conditions): reported by Ocain et al.; read-out: inhibitor constant
The target in data set [1] is arginyl aminopeptidase.
The target in data set [2] is cytosol aminopeptidase.
The target in data set [3] is T1, microsomal aminopeptidase (Sus scrofa, UniProt P15145).
T1 sequence (P15145 1-963): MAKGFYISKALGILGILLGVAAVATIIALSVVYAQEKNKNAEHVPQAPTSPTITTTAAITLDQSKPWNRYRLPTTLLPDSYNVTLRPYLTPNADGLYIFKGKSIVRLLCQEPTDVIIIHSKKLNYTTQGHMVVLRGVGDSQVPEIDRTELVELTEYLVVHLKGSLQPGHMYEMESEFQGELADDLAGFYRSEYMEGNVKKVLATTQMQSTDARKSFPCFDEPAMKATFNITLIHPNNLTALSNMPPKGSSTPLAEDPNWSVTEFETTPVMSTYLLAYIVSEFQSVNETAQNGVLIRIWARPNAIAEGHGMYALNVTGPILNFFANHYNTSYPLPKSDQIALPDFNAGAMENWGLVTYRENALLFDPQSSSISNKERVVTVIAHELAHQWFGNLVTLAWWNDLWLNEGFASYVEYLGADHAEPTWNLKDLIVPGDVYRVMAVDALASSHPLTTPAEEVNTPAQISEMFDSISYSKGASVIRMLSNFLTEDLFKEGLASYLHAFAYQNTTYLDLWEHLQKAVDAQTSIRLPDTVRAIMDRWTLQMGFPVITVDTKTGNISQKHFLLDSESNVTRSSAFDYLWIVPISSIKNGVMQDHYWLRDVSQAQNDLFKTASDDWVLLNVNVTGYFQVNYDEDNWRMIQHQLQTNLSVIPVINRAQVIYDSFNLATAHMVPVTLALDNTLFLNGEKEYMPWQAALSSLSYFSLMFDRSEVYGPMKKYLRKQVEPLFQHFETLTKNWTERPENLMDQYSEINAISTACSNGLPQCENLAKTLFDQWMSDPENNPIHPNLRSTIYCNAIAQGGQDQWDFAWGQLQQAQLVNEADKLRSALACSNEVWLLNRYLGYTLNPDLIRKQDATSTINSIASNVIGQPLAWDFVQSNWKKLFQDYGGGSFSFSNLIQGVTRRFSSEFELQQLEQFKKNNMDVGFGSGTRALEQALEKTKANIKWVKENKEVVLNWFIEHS

For `NC(=O)C(=O)C(N)Cc1ccccc1` (stereo not drawn) [3-Amino-2-oxo-4-phenylbutanoic acid amide], the Ki in data set [1] is 1500 µM; in data set [2] it was 1000 µM; in data set [3], 2500 µM.
